These are literature values, as cited in patent US20260216277A1, “TOPICAL COMPOSITIONS AND METHODS FOR TREATING ALOPECIA” (priority 2023, published 2026).

The subject of the data set is radiation-induced alopecia. The conditions noted are these: whole brain radiotherapy.

As to `CC1(C)CC(O)CC(C)(C)N1[O]` [Tempol, 4-hydroxy-2,2,6,6-tetramethylpiperidine-1-oxyl], the “Safety and tolerability of topical application to the scalp before radiation” value was “relatively safe and well tolerated”.
